ChEMBL document CHEMBL1909046, “DrugMatrix in vitro pharmacology data”
pIC50, pKi: −log10 of the molar value.

How the values were obtained:
[1] = molecular target: Beta-2 adrenergic receptor (Homo sapiens, UniProt P07550); experiment: DRUGMATRIX: Adrenergic beta2 radioligand binding (ligand: [3H] CGP-12177); assay type: cell membranes, Membrane; conditions: cho; Not Active = under 50% inhibition at 10 µM
[2] = molecular target: Sodium-dependent noradrenaline transporter (Homo sapiens, UniProt P23975); experiment: DRUGMATRIX: Norepinephrine Transporter radioligand binding (ligand: [125I] RTI-55); assay type: cell membranes, MDCK, Membrane; conditions: mdck; Not Active = under 50% inhibition at 10 µM
[3] = molecular target: T1, Vasoactive intestinal polypeptide receptor 1 (Homo sapiens, UniProt P32241); assay type: cell membranes, Membrane; conditions: ht-29; note: in other assays of this panel Not Active means under 50% inhibition at 10 µM
T1 sequence (P32241 whole entry): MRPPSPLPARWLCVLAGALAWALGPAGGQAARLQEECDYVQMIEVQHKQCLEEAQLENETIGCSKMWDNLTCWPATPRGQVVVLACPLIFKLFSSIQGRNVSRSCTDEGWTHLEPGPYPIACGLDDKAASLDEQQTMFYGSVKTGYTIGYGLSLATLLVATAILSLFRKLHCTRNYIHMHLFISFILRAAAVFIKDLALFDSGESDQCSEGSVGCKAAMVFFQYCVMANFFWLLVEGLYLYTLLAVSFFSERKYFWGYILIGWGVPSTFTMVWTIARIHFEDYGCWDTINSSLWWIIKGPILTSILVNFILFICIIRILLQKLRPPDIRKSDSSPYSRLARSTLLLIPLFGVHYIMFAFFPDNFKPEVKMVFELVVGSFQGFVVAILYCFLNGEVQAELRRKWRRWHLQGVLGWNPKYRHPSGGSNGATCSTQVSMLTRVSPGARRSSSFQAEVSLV

[4] = DRUGMATRIX: GABAA, Flunitrazepam, Central radioligand binding (ligand: [3H] Flunitrazepam); assay type: cell membranes, Rattus norvegicus, Wistar, Brain, Membrane; conditions: Not Active = under 50% inhibition at 10 µM
[5] = molecular target: T2, 3-hydroxy-3-methylglutaryl-coenzyme A reductase (Homo sapiens, UniProt P04035); design: species or system Escherichia coli;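 note: enzyme inhibition assay of HMG-CoA reductase using radiolabeled [14C]HMG-CoA as substrate; in other assays of this panel Not Active means under 50% inhibition at 10 µM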
T2 sequence (P04035 whole entry): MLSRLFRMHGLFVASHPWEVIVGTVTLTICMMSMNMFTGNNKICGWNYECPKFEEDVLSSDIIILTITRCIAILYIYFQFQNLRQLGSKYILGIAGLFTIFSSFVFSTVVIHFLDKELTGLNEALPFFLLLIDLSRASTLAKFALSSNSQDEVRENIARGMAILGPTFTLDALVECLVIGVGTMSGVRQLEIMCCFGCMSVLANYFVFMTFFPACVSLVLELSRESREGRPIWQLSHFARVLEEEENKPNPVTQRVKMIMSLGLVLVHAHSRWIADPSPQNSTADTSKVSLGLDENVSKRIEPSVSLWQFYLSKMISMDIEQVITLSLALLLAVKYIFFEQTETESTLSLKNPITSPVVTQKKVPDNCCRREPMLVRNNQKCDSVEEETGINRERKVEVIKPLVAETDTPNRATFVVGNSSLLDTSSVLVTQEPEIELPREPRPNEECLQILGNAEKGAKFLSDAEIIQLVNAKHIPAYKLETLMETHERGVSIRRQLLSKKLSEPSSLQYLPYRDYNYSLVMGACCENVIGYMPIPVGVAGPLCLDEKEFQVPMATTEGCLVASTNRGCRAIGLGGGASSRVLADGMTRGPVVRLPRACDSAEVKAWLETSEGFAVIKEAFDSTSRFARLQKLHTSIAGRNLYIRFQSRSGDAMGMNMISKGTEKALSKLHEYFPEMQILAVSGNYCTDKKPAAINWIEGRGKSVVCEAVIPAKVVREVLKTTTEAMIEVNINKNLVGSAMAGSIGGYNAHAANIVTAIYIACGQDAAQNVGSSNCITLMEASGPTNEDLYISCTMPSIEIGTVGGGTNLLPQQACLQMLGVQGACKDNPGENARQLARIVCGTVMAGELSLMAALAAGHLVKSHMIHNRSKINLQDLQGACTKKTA

Insulin receptor = Insulin receptor (Rattus norvegicus, UniProt P15127); assay type: cell membranes, Wistar, Liver, Membrane; note: in other assays of this panel Not Active means under 50% inhibition at 10 µM
[6] = DRUGMATRIX: Phosphodiesterase PDE4 enzyme inhibition (substrate: [3H]cAMP + cAMP); conditions: u-937; Not Active = under 50% inhibition at 10 µM
Progesterone receptor = molecular target: T3, Progesterone receptor (Bos taurus, UniProt Q690N0); experiment: DRUGMATRIX: Progesterone radioligand binding (ligand: [3H] R-5020); assay type: tissue-based, Uterus; conditions: Not Active = under 50% inhibition at 10 µM
T3 sequence (Q690N0 whole entry): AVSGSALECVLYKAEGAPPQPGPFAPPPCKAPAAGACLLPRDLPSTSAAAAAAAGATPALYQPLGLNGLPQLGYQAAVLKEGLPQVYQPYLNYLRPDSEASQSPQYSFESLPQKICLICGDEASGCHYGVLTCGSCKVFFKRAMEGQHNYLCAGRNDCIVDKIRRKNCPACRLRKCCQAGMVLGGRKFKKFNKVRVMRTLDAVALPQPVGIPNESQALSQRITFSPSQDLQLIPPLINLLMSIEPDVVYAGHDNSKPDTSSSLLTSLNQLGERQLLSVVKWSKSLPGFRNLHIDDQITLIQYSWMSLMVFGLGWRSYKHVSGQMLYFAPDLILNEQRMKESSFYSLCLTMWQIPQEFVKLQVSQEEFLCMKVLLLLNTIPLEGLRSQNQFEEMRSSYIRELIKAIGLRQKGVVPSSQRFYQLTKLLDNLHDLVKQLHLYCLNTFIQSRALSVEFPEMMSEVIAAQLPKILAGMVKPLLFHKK

[7] = molecular target: Mitogen-activated protein kinase 1 (Homo sapiens, UniProt P28482); experiment: DRUGMATRIX: Protein Serine/Threonine Kinase, ERK2 enzyme inhibition (substrate: Myelin Basic Protein); design: species or system Escherichia coli; conditions: Not Active = under 50% inhibition at 10 µM
[8] = molecular target: Tyrosine-protein kinase Fyn (Homo sapiens, UniProt P06241); experiment: biochemical; assay type: cell-based, Insect cells; conditions: insect cells;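 note: enzymatic inhibition of Fyn kinase activity measured with Poly(Glu:Tyr) as the phosphorylation substrate; in other assays of this panel Not Active means under 50% inhibition at 10 µM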
[9] = DRUGMATRIX: Purinergic P2X radioligand binding (ligand: [3H] alpha, beta-Methylene-ATP); assay type: cell membranes, Oryctolagus cuniculus, New Zealand albino, Urinary bladder, Membrane; conditions: Not Active = under 50% inhibition at 10 µM
[10] = molecular target: 5-hydroxytryptamine receptor 1B (Rattus norvegicus, UniProt P28564); assay type: cell membranes, Wistar, Cerebral cortex, Membrane; note: in other assays of this panel Not Active means under 50% inhibition at 10 µM
5-hydroxytryptamine receptor 1B, sequence (P28564 whole entry): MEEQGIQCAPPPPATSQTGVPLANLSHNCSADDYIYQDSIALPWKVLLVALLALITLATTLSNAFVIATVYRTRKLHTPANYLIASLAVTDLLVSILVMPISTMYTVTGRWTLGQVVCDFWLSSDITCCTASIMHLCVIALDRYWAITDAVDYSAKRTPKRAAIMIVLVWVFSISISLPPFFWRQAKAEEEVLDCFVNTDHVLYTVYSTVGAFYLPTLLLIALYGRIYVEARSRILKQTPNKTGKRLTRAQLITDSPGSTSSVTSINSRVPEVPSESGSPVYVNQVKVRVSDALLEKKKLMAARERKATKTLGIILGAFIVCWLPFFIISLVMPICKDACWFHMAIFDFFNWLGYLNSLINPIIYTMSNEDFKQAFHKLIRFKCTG

Beta-2 adrenergic receptor, sequence (P07550 whole entry): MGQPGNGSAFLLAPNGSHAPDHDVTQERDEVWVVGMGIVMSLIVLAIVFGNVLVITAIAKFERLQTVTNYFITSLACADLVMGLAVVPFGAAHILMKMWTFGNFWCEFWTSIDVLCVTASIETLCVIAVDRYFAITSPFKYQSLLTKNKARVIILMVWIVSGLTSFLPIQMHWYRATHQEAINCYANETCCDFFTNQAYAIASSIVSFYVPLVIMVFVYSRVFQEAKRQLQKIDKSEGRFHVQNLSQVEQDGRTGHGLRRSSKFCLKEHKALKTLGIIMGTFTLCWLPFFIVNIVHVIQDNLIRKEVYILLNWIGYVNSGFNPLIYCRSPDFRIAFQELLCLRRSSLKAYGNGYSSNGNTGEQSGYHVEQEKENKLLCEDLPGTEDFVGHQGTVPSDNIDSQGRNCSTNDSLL
Sodium-dependent noradrenaline transporter, sequence (P23975 whole entry): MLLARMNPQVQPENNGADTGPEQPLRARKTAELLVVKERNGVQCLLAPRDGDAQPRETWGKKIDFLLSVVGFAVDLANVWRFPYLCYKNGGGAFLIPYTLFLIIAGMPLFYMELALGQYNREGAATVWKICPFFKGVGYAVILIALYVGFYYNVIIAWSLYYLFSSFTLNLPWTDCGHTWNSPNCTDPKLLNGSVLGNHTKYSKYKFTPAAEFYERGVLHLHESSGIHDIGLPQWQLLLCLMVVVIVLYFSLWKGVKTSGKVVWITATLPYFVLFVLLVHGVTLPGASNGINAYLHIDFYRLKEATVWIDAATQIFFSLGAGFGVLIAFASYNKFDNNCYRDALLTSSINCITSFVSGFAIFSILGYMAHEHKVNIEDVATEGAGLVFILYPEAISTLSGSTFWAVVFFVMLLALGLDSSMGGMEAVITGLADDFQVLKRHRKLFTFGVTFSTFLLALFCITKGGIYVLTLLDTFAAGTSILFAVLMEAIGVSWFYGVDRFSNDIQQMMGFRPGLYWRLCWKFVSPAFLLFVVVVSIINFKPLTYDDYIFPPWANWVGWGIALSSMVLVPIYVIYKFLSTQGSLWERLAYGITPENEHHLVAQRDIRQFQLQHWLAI
Insulin receptor, sequence (P15127 27-759 limits assumed): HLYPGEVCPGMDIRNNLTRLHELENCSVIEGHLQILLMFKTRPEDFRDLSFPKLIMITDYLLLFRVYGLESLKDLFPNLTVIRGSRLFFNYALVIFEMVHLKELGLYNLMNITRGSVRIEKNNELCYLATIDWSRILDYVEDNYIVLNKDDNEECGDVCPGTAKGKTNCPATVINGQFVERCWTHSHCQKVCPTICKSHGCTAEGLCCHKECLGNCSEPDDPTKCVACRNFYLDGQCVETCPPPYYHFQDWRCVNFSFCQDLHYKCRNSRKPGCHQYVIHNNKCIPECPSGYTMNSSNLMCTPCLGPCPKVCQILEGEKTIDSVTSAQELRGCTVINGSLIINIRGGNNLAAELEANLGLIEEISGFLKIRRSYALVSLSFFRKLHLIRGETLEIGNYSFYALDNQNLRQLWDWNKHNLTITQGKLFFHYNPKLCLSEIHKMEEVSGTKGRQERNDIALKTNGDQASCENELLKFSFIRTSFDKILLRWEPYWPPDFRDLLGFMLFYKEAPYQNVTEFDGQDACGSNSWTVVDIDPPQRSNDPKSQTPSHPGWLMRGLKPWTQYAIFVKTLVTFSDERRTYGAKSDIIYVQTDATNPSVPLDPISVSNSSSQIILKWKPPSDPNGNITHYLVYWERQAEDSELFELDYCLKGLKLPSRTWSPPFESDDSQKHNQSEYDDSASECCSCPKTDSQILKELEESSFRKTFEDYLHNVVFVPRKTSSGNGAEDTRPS
Insulin receptor, sequence (P15127 764-1383 limits assumed): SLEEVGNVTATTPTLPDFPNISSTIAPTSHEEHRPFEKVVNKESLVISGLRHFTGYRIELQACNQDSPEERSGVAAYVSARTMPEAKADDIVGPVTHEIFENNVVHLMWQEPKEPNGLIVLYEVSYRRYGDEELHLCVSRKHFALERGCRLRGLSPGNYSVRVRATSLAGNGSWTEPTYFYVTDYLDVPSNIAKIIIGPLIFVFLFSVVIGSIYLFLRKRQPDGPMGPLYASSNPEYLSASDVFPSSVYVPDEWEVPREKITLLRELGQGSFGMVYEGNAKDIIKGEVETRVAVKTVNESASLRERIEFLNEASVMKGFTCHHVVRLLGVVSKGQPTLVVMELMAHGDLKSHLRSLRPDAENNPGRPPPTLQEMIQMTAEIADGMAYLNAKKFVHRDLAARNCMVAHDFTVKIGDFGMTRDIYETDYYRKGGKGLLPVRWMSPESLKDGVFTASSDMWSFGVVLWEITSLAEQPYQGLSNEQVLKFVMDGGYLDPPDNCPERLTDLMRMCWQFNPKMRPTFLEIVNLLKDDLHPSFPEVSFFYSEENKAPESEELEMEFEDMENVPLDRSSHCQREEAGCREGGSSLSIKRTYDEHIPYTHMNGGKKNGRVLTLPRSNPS
Mitogen-activated protein kinase 1, sequence (P28482 whole entry): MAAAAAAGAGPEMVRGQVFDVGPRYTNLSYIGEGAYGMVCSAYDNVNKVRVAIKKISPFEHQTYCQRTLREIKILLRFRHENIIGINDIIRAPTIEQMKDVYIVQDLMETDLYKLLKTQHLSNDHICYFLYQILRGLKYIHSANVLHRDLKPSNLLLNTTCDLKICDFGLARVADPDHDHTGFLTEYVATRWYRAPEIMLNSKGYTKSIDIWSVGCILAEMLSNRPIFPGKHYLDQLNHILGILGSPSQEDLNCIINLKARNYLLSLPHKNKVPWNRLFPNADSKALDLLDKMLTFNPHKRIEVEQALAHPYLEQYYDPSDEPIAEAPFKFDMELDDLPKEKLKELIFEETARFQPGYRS
Tyrosine-protein kinase Fyn, sequence (P06241 whole entry): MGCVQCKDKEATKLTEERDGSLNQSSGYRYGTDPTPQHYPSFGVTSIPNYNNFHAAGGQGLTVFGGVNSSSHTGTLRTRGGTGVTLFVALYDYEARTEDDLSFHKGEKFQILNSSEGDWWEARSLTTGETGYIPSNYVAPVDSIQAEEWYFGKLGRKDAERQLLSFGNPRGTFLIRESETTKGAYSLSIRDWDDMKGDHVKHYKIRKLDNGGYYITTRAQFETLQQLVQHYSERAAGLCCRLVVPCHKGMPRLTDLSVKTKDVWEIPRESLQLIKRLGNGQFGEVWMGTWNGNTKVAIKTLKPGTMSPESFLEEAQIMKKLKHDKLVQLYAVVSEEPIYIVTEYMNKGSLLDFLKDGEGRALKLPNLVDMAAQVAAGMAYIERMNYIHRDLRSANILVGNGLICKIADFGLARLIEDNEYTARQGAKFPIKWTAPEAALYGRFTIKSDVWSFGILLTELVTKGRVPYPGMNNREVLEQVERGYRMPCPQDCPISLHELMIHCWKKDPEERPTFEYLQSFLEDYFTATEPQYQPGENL

C[C@]12CCC(=O)C=C1CC[C@@H]1[C@@H]2C(=O)C[C@@]2(C)[C@H]1CC[C@]2(O)C(=O)CO [CORTISONE]
Not Active: IC50 [1] | IC50 [2] | IC50 [3] | IC50 [4] | Ki [4] | IC50 [5] | IC50 (Insulin receptor) | IC50 [6] | Ki [6] | IC50 (Progesterone receptor) | IC50 [7] | IC50 [8] | IC50 [9] | Ki [9] | IC50 [10]

Cc1ccccc1N1CCN(CCc2nnc3n2CCCC3)CC1 [DAPIPRAZOLE]
Not Active: IC50 [1] | IC50 [2] | IC50 [3] | IC50 [4] | Ki [4] | IC50 [5] | IC50 (Insulin receptor) | IC50 [6] | Ki [6] | IC50 (Progesterone receptor) | IC50 [7] | IC50 [8] | IC50 [9] | Ki [9] | IC50 [10]

CC1=Nc2ccc(Cl)cc2S(=O)(=O)N1 [DIAZOXIDE]
Not Active: IC50 [1] | IC50 [2] | IC50 [3] | IC50 [4] | Ki [4] | IC50 [5] | IC50 (Insulin receptor) | IC50 [6] | Ki [6] | IC50 (Progesterone receptor) | IC50 [7] | IC50 [8] | IC50 [9] | Ki [9] | IC50 [10]

CC(=O)OCC(=O)[C@@]1(OC(C)=O)[C@@H](C)C[C@H]2[C@@H]3C[C@H](F)C4=CC(=O)C=C[C@]4(C)[C@@]3(F)[C@@H](O)C[C@@]21C [DIFLORASONE DIACETATE]
6.94: pIC50 (Progesterone receptor; read-out: IC50)
7.82: pKi (Progesterone receptor; read-out: Ki)
Not Active: IC50 [1] | IC50 [2] | IC50 [3] | IC50 [4] | Ki [4] | IC50 [5] | IC50 (Insulin receptor) | IC50 [6] | Ki [6] | IC50 [7] | IC50 [8] | IC50 [9] | Ki [9] | IC50 [10]

COc1ccc([C@@H]2Sc3ccccc3N(CCN(C)C)C(=O)[C@@H]2OC(C)=O)cc1 [DILTIAZEM]
Not Active: IC50 [1] | IC50 [2] | IC50 [3] | IC50 [4] | Ki [4] | IC50 [5] | IC50 (Insulin receptor) | IC50 [6] | Ki [6] | IC50 (Progesterone receptor) | IC50 [7] | IC50 [8] | IC50 [9] | Ki [9] | IC50 [10]

CCc1ccc(C(=O)C(C)CN2CCCCC2)cc1 (stereo unspecified) [EPERISONE]
Not Active: IC50 [1] | IC50 [2] | IC50 [3] | IC50 [4] | Ki [4] | IC50 [5] | IC50 (Insulin receptor) | IC50 [6] | Ki [6] | IC50 (Progesterone receptor) | IC50 [7] | IC50 [8] | IC50 [9] | Ki [9] | IC50 [10]

C=C1CC[C@H](O)C/C1=C/C=C1\CCC[C@]2(C)[C@@H]([C@H](C)/C=C/[C@H](C)C(C)C)CC[C@@H]12 [ERGOCALCIFEROL]
Not Active: IC50 [1] | IC50 [2] | IC50 [3] | IC50 [4] | Ki [4] | IC50 [5] | IC50 (Insulin receptor) | IC50 [6] | Ki [6] | IC50 (Progesterone receptor) | IC50 [7] | IC50 [8] | IC50 [9] | Ki [9] | IC50 [10]

CCc1cccc2c3c([nH]c12)C(CC)(CC(=O)O)OCC3 (stereo unspecified) [ETODOLAC]
Not Active: IC50 [1] | IC50 [2] | IC50 [3] | IC50 [4] | Ki [4] | IC50 [5] | IC50 (Insulin receptor) | IC50 [6] | Ki [6] | IC50 (Progesterone receptor) | IC50 [7] | IC50 [8] | IC50 [9] | Ki [9] | IC50 [10]

Cc1c(-c2ccccc2)oc2c(C(=O)OCCN3CCCCC3)cccc2c1=O [FLAVOXATE]
Not Active: IC50 [1] | IC50 [2] | IC50 [3] | IC50 [4] | Ki [4] | IC50 [5] | IC50 (Insulin receptor) | IC50 [6] | Ki [6] | IC50 (Progesterone receptor) | IC50 [7] | IC50 [8] | IC50 [9] | Ki [9] | IC50 [10]

Nc1nc(=O)[nH]cc1F [FLUCYTOSINE]
Not Active: IC50 [1] | IC50 [2] | IC50 [3] | IC50 [4] | Ki [4] | IC50 [5] | IC50 (Insulin receptor) | IC50 [6] | Ki [6] | IC50 (Progesterone receptor) | IC50 [7] | IC50 [8] | IC50 [9] | Ki [9] | IC50 [10]
